Experimental data from PubChem BioAssay AID248 (DTP/NCI, 2004).
Values joined by “and” are separate entries in the source; they are usually repeats but may differ in a detail not shown here. Identical values can stand only once. Toxic doses and inconclusive results are not listed. Rule as the data show it: active = T/C of 150% or more; inactive = T/C below 125%.

Tested on: L1210 leukemia ip in BDF1 mice, survival T/C
Experiment: NCI In Vivo Anticancer Drug Screen. Data for tumor model L1210 Leukemia (intraperitoneal) in B6D2F1 (BDF1) mice
Details: higher = longer survival
In short: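 Mice bearing the transplanted tumor received compound or vehicle. Survival of the treated group was divided by that of the vehicle-treated control group to give the ratio.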

[1] = endpoint: mean survival time, dose: 25.0 mg/kg/injection, schedule: Q01DX009 (ip), vehicle: saline
[2] = endpoint: mean survival time, dose: 12.5 mg/kg/injection, schedule: Q01DX009 (ip), vehicle: Klucel (hydroxypropylcellulose) (HPC)
[3] = endpoint: mean survival time, dose: 25.0 mg/kg/injection, schedule: Q01DX009 (ip), vehicle: Klucel (hydroxypropylcellulose) (HPC)
[4] = endpoint: mean survival time, dose: 100.0 mg/kg/injection, schedule: Q04DX003 (ip), vehicle: saline with Tween-80
[5] = endpoint: mean survival time, dose: 200.0 mg/kg/injection, schedule: Q04DX003 (ip), vehicle: saline with Tween-80
[6] = endpoint: mean survival time, dose: 400.0 mg/kg/injection, schedule: Q04DX003 (ip), vehicle: saline with Tween-80
[7] = endpoint: mean survival time, dose: 100.0 mg/kg/injection, schedule: Q04DX003 (ip), vehicle: saline
[8] = endpoint: mean survival time, dose: 200.0 mg/kg/injection, schedule: Q04DX003 (ip), vehicle: saline
[9] = endpoint: mean survival time, dose: 400.0 mg/kg/injection, schedule: Q04DX003 (ip), vehicle: saline

Measured: T/C

CC(=O)O[C@]1(C(C)=O)CC[C@H]2[C@@H]3C[C@H](C)C4=CC(=O)C=C[C@]4(C)[C@@]3(F)[C@@H](O)C[C@@]21C
inactive: endpoint: mean survival time, dose: 12.5 mg/kg/injection, schedule: Q01DX010 (sc), vehicle: steriod suspending solution 96 % of control and 98 % of control | endpoint: mean survival time, dose: 25.0 mg/kg/injection, schedule: Q01DX009 (sc), vehicle: steriod suspending solution 103 % of control and 104 % of control and 111 % of control | endpoint: mean survival time, dose: 25.0 mg/kg/injection, schedule: Q01DX010 (sc), vehicle: steriod suspending solution 98 % of control and 101 % of control | endpoint: mean survival time, dose: 50.0 mg/kg/injection, schedule: Q01DX009 (sc), vehicle: steriod suspending solution 93 % of control and 95 % of control and 111 % of control | endpoint: mean survival time, dose: 50.0 mg/kg/injection, schedule: Q01DX010 (sc), vehicle: steriod suspending solution 95 % of control and 107 % of control | endpoint: mean survival time, dose: 100.0 mg/kg/injection, schedule: Q01DX009 (sc), vehicle: steriod suspending solution 98 % of control (2×) and 111 % of control | endpoint: mean survival time, dose: 100.0 mg/kg/injection, schedule: Q01DX010 (sc), vehicle: steriod suspending solution 98 % of control and 107 % of control | endpoint: mean survival time, dose: 200.0 mg/kg/injection, schedule: Q01DX009 (sc), vehicle: steriod suspending solution 95 % of control (2×) and 111 % of control | endpoint: median survival time, dose: 25.0 mg/kg/injection, schedule: Q01DX009 (sc), vehicle: steriod suspending solution 106 % of control | endpoint: median survival time, dose: 50.0 mg/kg/injection, schedule: Q01DX009 (sc), vehicle: steriod suspending solution 100 % of control | endpoint: median survival time, dose: 100.0 mg/kg/injection, schedule: Q01DX009 (sc), vehicle: steriod suspending solution 100 % of control | endpoint: median survival time, dose: 200.0 mg/kg/injection, schedule: Q01DX009 (sc), vehicle: steriod suspending solution 100 % of control

O=C(Nc1ccc(F)cc1)OCC1CCCO1 (configuration not stated)
inactive: endpoint: mean survival time, dose: 100.0 mg/kg/injection, schedule: Q01DX001 (ip), vehicle: carboxymethylcellulose (CMC) 100 % of control | endpoint: mean survival time, dose: 100.0 mg/kg/injection, schedule: Q01DX009 (ip), vehicle: carboxymethylcellulose (CMC) 102 % of control and 103 % of control | endpoint: mean survival time, dose: 100.0 mg/kg/injection, schedule: Q04DX002 (ip), vehicle: carboxymethylcellulose (CMC) 100 % of control and 102 % of control | endpoint: mean survival time, dose: 200.0 mg/kg/injection, schedule: Q01DX001 (ip), vehicle: carboxymethylcellulose (CMC) 103 % of control | endpoint: mean survival time, dose: 200.0 mg/kg/injection, schedule: Q01DX009 (ip), vehicle: carboxymethylcellulose (CMC) 92 % of control and 97 % of control | endpoint: mean survival time, dose: 200.0 mg/kg/injection, schedule: Q04DX002 (ip), vehicle: carboxymethylcellulose (CMC) 95 % of control and 98 % of control | endpoint: mean survival time, dose: 400.0 mg/kg/injection, schedule: Q01DX001 (ip), vehicle: carboxymethylcellulose (CMC) 92 % of control | endpoint: mean survival time, dose: 400.0 mg/kg/injection, schedule: Q01DX009 (ip), vehicle: carboxymethylcellulose (CMC) 96 % of control and 102 % of control | endpoint: mean survival time, dose: 400.0 mg/kg/injection, schedule: Q04DX002 (ip), vehicle: carboxymethylcellulose (CMC) 92 % of control and 96 % of control

C=CCN(CC=C)c1ncnc2[nH]ncc12
inactive: endpoint: mean survival time, dose: 7.0 mg/kg/injection, schedule: Q01DX015 (ip), vehicle: carboxymethylcellulose (CMC) 91 % of control | endpoint: mean survival time, dose: 16.0 mg/kg/injection, schedule: Q01DX015 (ip), vehicle: carboxymethylcellulose (CMC) 97 % of control | endpoint: mean survival time, dose: 32.0 mg/kg/injection, schedule: Q01DX015 (ip), vehicle: carboxymethylcellulose (CMC) 93 % of control | endpoint: mean survival time, dose: 62.0 mg/kg/injection, schedule: Q01DX015 (ip), vehicle: carboxymethylcellulose (CMC) 106 % of control | endpoint: mean survival time, dose: 100.0 mg/kg/injection, schedule: Q01DX001 (ip), vehicle: saline 109 % of control | endpoint: mean survival time, dose: 125.0 mg/kg/injection, schedule: Q01DX015 (ip), vehicle: carboxymethylcellulose (CMC) 89 % of control | endpoint: mean survival time, dose: 200.0 mg/kg/injection, schedule: Q01DX001 (ip), vehicle: saline 101 % of control | endpoint: mean survival time, dose: 400.0 mg/kg/injection, schedule: Q01DX001 (ip), vehicle: saline 93 % of control

CCCCCCCCNC12CC3CC(CC(C3)C1)C2
inactive: endpoint: mean survival time, dose: 3.12 mg/kg/injection, schedule: Q01DX009 (ip), vehicle: saline 99 % of control | endpoint: mean survival time, dose: 6.25 mg/kg/injection, schedule: Q01DX009 (ip), vehicle: saline 89 % of control | endpoint: mean survival time, dose: 12.5 mg/kg/injection, schedule: Q01DX009 (ip), vehicle: saline 87 % of control | endpoint: mean survival time, dose: 12.5 mg/kg/injection, schedule: Q04DX003 (ip), vehicle: saline 110 % of control | [1] 92 % of control | endpoint: mean survival time, dose: 25.0 mg/kg/injection, schedule: Q04DX003 (ip), vehicle: saline 109 % of control

O=C(OCc1ccccc1CN1CCOCC1)c1cccc(Cl)c1
inactive: endpoint: mean survival time, dose: 100.0 mg/kg/injection, schedule: Q04DX002 (ip), vehicle: Klucel (hydroxypropylcellulose) (HPC) 92 % of control | endpoint: mean survival time, dose: 200.0 mg/kg/injection, schedule: Q04DX002 (ip), vehicle: Klucel (hydroxypropylcellulose) (HPC) 92 % of control | endpoint: mean survival time, dose: 400.0 mg/kg/injection, schedule: Q04DX002 (ip), vehicle: Klucel (hydroxypropylcellulose) (HPC) 95 % of control

Cc1nc(-c2ccc(N=Cc3ccc(N(CCOS(C)(=O)=O)CCOS(C)(=O)=O)cc3Cl)cc2)c(C)s1
inactive: [2] 114 % of control | [3] 111 % of control

CCN(CC)C(=O)N1CCN(c2ccc(Cl)cc2)CC1
inactive: endpoint: mean survival time, dose: 75.0 mg/kg/injection, schedule: Q01DX001 (ip), vehicle: saline 106 % of control | endpoint: mean survival time, dose: 75.0 mg/kg/injection, schedule: Q04DX003 (ip), vehicle: saline 103 % of control | endpoint: mean survival time, dose: 150.0 mg/kg/injection, schedule: Q01DX001 (ip), vehicle: saline 94 % of control | endpoint: mean survival time, dose: 150.0 mg/kg/injection, schedule: Q04DX003 (ip), vehicle: saline 100 % of control | endpoint: mean survival time, dose: 300.0 mg/kg/injection, schedule: Q01DX001 (ip), vehicle: saline 108 % of control | endpoint: mean survival time, dose: 300.0 mg/kg/injection, schedule: Q04DX003 (ip), vehicle: saline 91 % of control

O=C(N/N=C\c1cccc2ccccc12)C(=O)N/N=C/c1cccc2ccccc12
inactive: [4] 88 % of control | [5] 88 % of control | [6] 91 % of control

Cc1ccc(S(=O)(=O)N(CCCc2c(C)nc(N)nc2Cl)c2ccccc2)cc1
inactive: endpoint: mean survival time, dose: 100.0 mg/kg/injection, schedule: Q01DX001 (ip), vehicle: Klucel (hydroxypropylcellulose) (HPC) 86 % of control | endpoint: mean survival time, dose: 400.0 mg/kg/injection, schedule: Q01DX001 (ip), vehicle: Klucel (hydroxypropylcellulose) (HPC) 93 % of control

O=C(Nc1cccc(NC(=O)Nc2cc(C(O)=Nc3ccc(C4=NCCN4)cc3)ccc2C(O)=Nc2ccc(C3=NCCN3)cc2)c1)Nc1cc(C(O)=Nc2ccc(C3=NCCN3)cc2)ccc1C(O)=Nc1ccc(C2=NCCN2)cc1
inactive: endpoint: mean survival time, dose: 15.0 mg/kg/injection, schedule: Q01DX Z (ip), vehicle: saline 92 % of control | endpoint: mean survival time, dose: 30.0 mg/kg/injection, schedule: Q01DX Z (ip), vehicle: saline 97 % of control | endpoint: mean survival time, dose: 60.0 mg/kg/injection, schedule: Q01DX Z (ip), vehicle: saline 102 % of control | endpoint: mean survival time, dose: 120.0 mg/kg/injection, schedule: Q01DX Z (ip), vehicle: saline 105 % of control

CCN1OCC(C)(C(=O)OC)C1C (configuration not stated)
inactive: [7] 102 % of control | [8] 97 % of control | [9] 107 % of control

c1ccc(CCNc2ccnc3ccccc23)cc1
inactive: [2] 103 % of control | endpoint: mean survival time, dose: 12.5 mg/kg/injection, schedule: Q04DX003 (ip), vehicle: Klucel (hydroxypropylcellulose) (HPC) 104 % of control | [3] 101 % of control | endpoint: mean survival time, dose: 25.0 mg/kg/injection, schedule: Q04DX003 (ip), vehicle: Klucel (hydroxypropylcellulose) (HPC) 97 % of control | endpoint: mean survival time, dose: 50.0 mg/kg/injection, schedule: Q04DX003 (ip), vehicle: Klucel (hydroxypropylcellulose) (HPC) 95 % of control

Cc1cc2cc3c(=O)[nH]c(=O)nc-3n(CC(O)C(O)C(O)COP(=O)(O)O)c2cc1C (configuration not stated)
inactive: [1] 96 % of control | endpoint: mean survival time, dose: 50.0 mg/kg/injection, schedule: Q01DX009 (ip), vehicle: saline 100 % of control | endpoint: mean survival time, dose: 100.0 mg/kg/injection, schedule: Q01DX009 (ip), vehicle: saline 94 % of control and 89 % of control | [7] 110 % of control | endpoint: mean survival time, dose: 200.0 mg/kg/injection, schedule: Q01DX009 (ip), vehicle: saline 86 % of control | [8] 100 % of control | [9] 98 % of control

CC(=O)CC(C)=NCC(C)N=C(C)CC(C)=O (configuration not stated)
inactive: endpoint: mean survival time, dose: 100.0 mg/kg/injection, schedule: Q01DX009 (ip), vehicle: saline with Tween-80 89 % of control | [4] 100 % of control | endpoint: mean survival time, dose: 200.0 mg/kg/injection, schedule: Q01DX009 (ip), vehicle: saline with Tween-80 98 % of control | [5] 101 % of control | [6] 93 % of control

CCOC(=O)C1C(=O)C(N=Nc2ccc(-c3ccc(N=NC4C(=O)C(C(=O)OCC)C(c5ccc(O)c(OC)c5)C(C(=O)OCC)C4=O)cc3)cc2)C(=O)CC1c1ccc(O)c(OC)c1 (configuration not stated)
inactive: endpoint: mean survival time, dose: 100.0 mg/kg/injection, schedule: Q01DX001 (ip), vehicle: other 96 % of control | endpoint: mean survival time, dose: 200.0 mg/kg/injection, schedule: Q01DX001 (ip), vehicle: other 103 % of control
